Measured values published in patent publication US11820766B2, “Monoacylglycerol lipase modulators” (Janssen Pharmaceutica NV, priority 2018, dated 2023).

Molecular target: T1, human MGL from HeLa cells (Homo sapiens, UniProt Q99685)
T1 construct: combining endogenously expressed MGL from HeLa cells with test compounds; endogenous in cells; host or cells: HeLa cells / cell homogenates
T1 sequence (Q99685 1-303): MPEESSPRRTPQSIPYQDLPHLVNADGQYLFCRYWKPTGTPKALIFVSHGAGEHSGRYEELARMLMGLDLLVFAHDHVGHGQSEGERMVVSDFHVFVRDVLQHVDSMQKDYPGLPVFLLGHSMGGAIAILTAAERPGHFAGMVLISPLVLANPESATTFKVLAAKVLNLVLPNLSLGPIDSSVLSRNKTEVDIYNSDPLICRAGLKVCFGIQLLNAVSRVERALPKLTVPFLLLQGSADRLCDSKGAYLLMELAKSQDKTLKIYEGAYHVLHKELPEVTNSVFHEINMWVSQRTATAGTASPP
Assay: In vitro MGL activity assay: [glycerol-1,3-3H]-oleyl glycerol cleavage by MGL from HeLa cells
Assay type: biochemical
Settings: 300 nM [Glycerol-1,3-3H]-oleyl glycerol, one hour
Excerpt: MGL is the predominant hydrolase in HeLa cells/cell homogenates.

In order of falling IC50:
1. C[C@H]1c2nn(C)c(-c3cc(F)c(F)c(F)c3)c2CCN1C(=O)c1cnn(C)c1C1(C)CC1 [Example 334, [(7S)-2,7-Dimethyl-3-(3,4,5-trifluorophenyl)-5,7-dihydro-4H-pyrazolo[3,4-c]pyridin-6-yl]-[1-methyl-5-(1-methylcyclopropyl)pyrazol-4-yl]methanone]  2790 nM
2. Cc1nn(C)cc1C(=O)N1CCc2c(nn(C)c2-c2cc(F)c(F)c(F)c2)[C@@H]1C [Example 343, (1,3-Dimethylpyrazol-4-yl)-[(7S)-2,7-dimethyl-3-(3,4,5-trifluorophenyl)-5,7-dihydro-4H-pyrazolo[3,4-c]pyridin-6-yl]methanone]  308 nM
3. Cc1nn(C)c(C)c1C(=O)N1CCc2c(nn(C)c2-c2cc(F)c(F)c(F)c2)[C@@H]1C [Example 344, [(7S)-2,7-Dimethyl-3-(3,4,5-trifluorophenyl)-5,7-dihydro-4H-pyrazolo[3,4-c]pyridin-6-yl]-(1,3,5-trimethylpyrazol-4-yl)methanone]  58.1 nM
4. Cc1c(C(=O)N2CCc3c(nn(C)c3-c3cc(F)c(F)c(F)c3)[C@@H]2C)cnn1C [Example 345, (1,5-Dimethylpyrazol-4-yl)-[(7S)-2,7-dimethyl-3-(3,4,5-trifluorophenyl)-5,7-dihydro-4H-pyrazolo[3,4-c]pyridin-6-yl]methanone]  52.8 nM
5. C[C@H]1c2nn(C)c(-c3cc(F)c(F)c(F)c3)c2CCN1C(=O)c1cnn(C)c1C1(F)CC1 [Example 335, [(7S)-2,7-Dimethyl-3-(3,4,5-trifluorophenyl)-5,7-dihydro-4H-pyrazolo[3,4-c]pyridin-6-yl]-[5-(1-fluorocyclopropyl)-1-methyl-pyrazol-4-yl]methanone]  32.1 nM
6. C[C@H]1c2nn(C)c(-c3cc(F)c(F)c(F)c3)c2CCN1C(=O)c1cnn(C)c1C1CCC1 [Example 333, (5-Cyclobutyl-1-methyl-pyrazol-4-yl)-[(7S)-2,7-dimethyl-3-(3,4,5-trifluorophenyl)-5,7-dihydro-4H-pyrazolo[3,4-c]pyridin-6-yl]methanone]  25.4 nM
7. C[C@H]1c2nn(C)c(-c3cc(F)c(F)c(F)c3)c2CCN1C(=O)c1cnn(C2CC2)c1C(F)(F)F [Example 346, [1-Cyclopropyl-5-(trifluoromethyl)pyrazol-4-yl]-[(7S)-2,7-dimethyl-3-(3,4,5-trifluorophenyl)-5,7-dihydro-4H-pyrazolo[3,4-c]pyridin-6-yl]methanone]  22.4 nM
8. CC1CC1c1c(C(=O)N2CCc3c(nn(C)c3-c3cc(F)c(F)c(F)c3)[C@@H]2C)cnn1C (stereo partly drawn) [Example 341, ((S)-2,7-Dimethyl-3-(3,4,5-trifluorophenyl)-2,4,5,7-tetrahydro-6H-pyrazolo[3,4-c]pyridin-6-yl)(1-methyl-cis-5-(2-methylcyclopropyl)-1H-pyrazol-4-yl)methanone]  9.53 nM
9. C[C@H]1c2nn(C)c(-c3cc(F)c(F)c(F)c3)c2CCN1C(=O)c1cnn(C)c1C1CC1(F)F (stereo partly drawn) [Example 336, (5-(2,2-Difluorocyclopropyl)-1-methyl-1H-pyrazol-4-yl)((S)-2,7-dimethyl-3-(3,4,5-trifluorophenyl)-4,5-dihydro-2H-pyrazolo[3,4-c]pyridin-6-yl)methanone]  8.7 nM

Same assay, conditions: 300 nM [Glycerol-1,3-3H]-oleyl glycerol, one hour incubation

In order of rising IC50:
1. C[C@H]1c2nn(C)c(-c3cc(F)c(F)c(F)c3)c2CCN1C(=O)c1ccc(-c2ccccn2)s1 [Example 325, [(7S)-2,7-Dimethyl-3-(3,4,5-trifluorophenyl)-5,7-dihydro-4H-pyrazolo[3,4-c]pyridin-6-yl]-[5-(2-pyridyl)-2-thienyl]methanone]  7.9 nM
2. Cc1nc(C(=O)N2CCc3c(nn(C)c3-c3cc(F)c(F)c(F)c3)[C@@H]2C)nn1-c1ccccc1 [Example 321, [(7S)-2,7-Dimethyl-3-(3,4,5-trifluorophenyl)-5,7-dihydro-4H-pyrazolo[3,4-c]pyridin-6-yl]-(5-methyl-1-phenyl-1,2,4-triazol-3-yl)methanone]  14.8 nM
3. COc1nccc(C(=O)N2CCc3c(nn(C)c3-c3cc(F)c(F)c(F)c3)[C@@H]2C)c1Cl [Example 316, (3-Chloro-2-methoxy-4-pyridyl)-[(7S)-2,7-dimethyl-3-(3,4,5-trifluorophenyl)-5,7-dihydro-4H-pyrazolo[3,4-c]pyridin-6-yl]methanone]  17.2 nM
4. COc1nccc(C(=O)N2CCc3c(nn(C)c3-c3cc(F)c(F)c(F)c3)[C@@H]2C)c1C [Example 314, [(7S)-2,7-Dimethyl-3-(3,4,5-trifluorophenyl)-5,7-dihydro-4H-pyrazolo[3,4-c]pyridin-6-yl]-(2-methoxy-3-methyl-4-pyridyl)methanone]  20.6 nM
5. COc1ccnc(C(=O)N2CCc3c(nn(C)c3-c3cc(F)c(F)c(F)c3)[C@@H]2C)c1Cl [Example 317, (3-Chloro-4-methoxy-2-pyridyl)-[(7S)-2,7-dimethyl-3-(3,4,5-trifluorophenyl)-5,7-dihydro-4H-pyrazolo[3,4-c]pyridin-6-yl]methanone]  30.1 nM
6. Cc1nc(C(=O)N2CCc3c(nn(C)c3-c3cc(F)c(F)c(F)c3)[C@@H]2C)nn1-c1ccc(F)cc1 [Example 322, [(7S)-2,7-Dimethyl-3-(3,4,5-trifluorophenyl)-5,7-dihydro-4H-pyrazolo[3,4-c]pyridin-6-yl]-[1-(4-fluorophenyl)-5-methyl-1,2,4-triazol-3-yl]methanone]  34.6 nM
7. C[C@H]1c2nn(C)c(-c3cc(F)c(F)c(F)c3)c2CCN1C(=O)c1ncn(-c2ncccc2F)n1 [Example 324, [(7S)-2,7-Dimethyl-3-(3,4,5-trifluorophenyl)-5,7-dihydro-4H-pyrazolo[3,4-c]pyridin-6-yl]-[1-(3-fluoro-2-pyridyl)-1,2,4-triazol-3-yl]methanone]  41.7 nM
8. COc1nccc(C(=O)N2CCc3c(nn(C)c3-c3cc(F)c(F)c(F)c3)[C@@H]2C)c1F [Example 315, [(7S)-2,7-Dimethyl-3-(3,4,5-trifluorophenyl)-5,7-dihydro-4H-pyrazolo[3,4-c]pyridin-6-yl]-(3-fluoro-2-methoxy-4-pyridyl)methanone]  42.4 nM
9. Cc1cc(F)cc(-c2c3c(nn2C)[C@H](C)N(C(=O)c2cnn(C)c2C)CC3)c1 [Example 327, (1,5-Dimethylpyrazol-4-yl)-[(7S)-3-(3-fluoro-5-methyl-phenyl)-2,7-dimethyl-5,7-dihydro-4H-pyrazolo[3,4-c]pyridin-6-yl]methanone]  55.3 nM
10. C[C@H]1c2nn(C)c(-c3cc(F)c(F)c(F)c3)c2CCN1C(=O)c1ncn(-c2ccccn2)n1 [Example 323, [(7S)-2,7-Dimethyl-3-(3,4,5-trifluorophenyl)-5,7-dihydro-4H-pyrazolo[3,4-c]pyridin-6-yl]-[1-(2-pyridyl)-1,2,4-triazol-3-yl]methanone]  65.6 nM
11. C[C@H]1c2nn(C)c(-c3cc(F)c(F)c(F)c3)c2CCN1C(=O)c1cccc(-n2cccn2)n1 [Example 320, [(7S)-2,7-Dimethyl-3-(3,4,5-trifluorophenyl)-5,7-dihydro-4H-pyrazolo[3,4-c]pyridin-6-yl]-(6-pyrazol-1-yl-2-pyridyl)methanone]  79 nM
12. C[C@H]1c2nn(C)c(-c3cc(F)c(F)c(F)c3)c2CCN1C(=O)c1cnn(C)c1C(F)F [Example 330, [5-(Difluoromethyl)-1-methyl-pyrazol-4-yl]-[(7S)-2,7-dimethyl-3-(3,4,5-trifluorophenyl)-5,7-dihydro-4H-pyrazolo[3,4-c]pyridin-6-yl]methanone]  102 nM
13. C[C@H]1c2nn(C)c(-c3cc(F)c(F)c(F)c3)c2CCN1C(=O)c1cn(C2CC2)nc1C(F)(F)F [Example 332, [1-Cyclopropyl-3-(trifluoromethyl)pyrazol-4-yl]-[(7S)-2,7-dimethyl-3-(3,4,5-trifluorophenyl)-5,7-dihydro-4H-pyrazolo[3,4-c]pyridin-6-yl]methanone]  143 nM
14. C[C@H]1c2nn(C)c(-c3cc(F)c(F)c(F)c3)c2CCN1C(=O)c1cncc(-n2cccn2)c1 [Example 318, [(7S)-2,7-Dimethyl-3-(3,4,5-trifluorophenyl)-5,7-dihydro-4H-pyrazolo[3,4-c]pyridin-6-yl]-(5-pyrazol-1-yl-3-pyridyl)methanone]  178 nM
15. C[C@H]1c2nn(C)c(-c3cc(F)c(F)c(F)c3)c2CCN1C(=O)c1cnn(C2CC2)c1 [Example 331, (1-Cyclopropylpyrazol-4-yl)-[(7S)-2,7-dimethyl-3-(3,4,5-trifluorophenyl)-5,7-dihydro-4H-pyrazolo[3,4-c]pyridin-6-yl]methanone]  250 nM
16. Cc1ccc(-n2nccn2)c(C(=O)N2CCc3c(nn(C)c3-c3cc(F)c(F)c(F)c3)[C@@H]2C)n1 [Example 319, [(7S)-2,7-Dimethyl-3-(3,4,5-trifluorophenyl)-5,7-dihydro-4H-pyrazolo[3,4-c]pyridin-6-yl]-[6-methyl-3-(triazol-2-yl)-2-pyridyl]methanone]  255 nM
17. COc1cnc(C(=O)N2CCc3c(nn(C)c3-c3cc(F)c(F)c(F)c3)[C@@H]2C)cn1 [Example 326, [(7S)-2,7-Dimethyl-3-(3,4,5-trifluorophenyl)-5,7-dihydro-4H-pyrazolo[3,4-c]pyridin-6-yl]-(5-methoxypyrazin-2-yl)methanone]  522 nM
18. CC(C)c1c(C(=O)N2CCc3c(nn(C)c3-c3cc(F)c(F)c(F)c3)[C@@H]2C)cnn1C [Example 328, [(7S)-2,7-Dimethyl-3-(3,4,5-trifluorophenyl)-5,7-dihydro-4H-pyrazolo[3,4-c]pyridin-6-yl]-(5-isopropyl-1-methyl-pyrazol-4-yl)methanone]  1090 nM
19. C[C@H]1c2nn(C)c(-c3cc(F)c(F)c(F)c3)c2CCN1C(=O)c1cnn(C(F)(F)F)c1 [Example 329, [(7S)-2,7-Dimethyl-3-(3,4,5-trifluorophenyl)-5,7-dihydro-4H-pyrazolo[3,4-c]pyridin-6-yl]-[1-(trifluoromethyl)pyrazol-4-yl]methanone]  5080 nM
